Drawing on patent US20170196859A1, “PHARMACEUTICAL COMPOSITION COMPRISING PYRAZINE CARBOXAMIDE COMPOUND AS ACTIVE INGREDIENT” (Astellas Pharma Inc., priority 2014, published 2017), this text covers IC50 for one molecule.

Structures are written as SMILES. pIC50: −log10 of the molar value.

Holding throughout (format): cell-based
Test [1] deals with human acute myeloid leukemia cell line KG-1 cells. Briefly: Proliferation inhibition, KG-1 cells (CellTiter-Glo). The following applies: KG-1, 72 h, 3 days culture. As to the method: (§1) KG-1 is a cell line originated from human acute myeloid leukemia and the BTK expression has been confirmed (J. Immunol. 1994; 152(2):557-565). The human acute myeloid leukemia cell line KG-1 cells (American Type Culture Collection, CCL-246) cultured in RPMI1640 medium (Sigma) containing 10% bovine serum were seeded into 96 well plates. On the next day, DMSO solutions of the test compound B at final concentrations from 1 nM to 10 μM or only DMSO (DMSO group) were added thereto to culture the cells at 37° C. in 5% CO2 for 3 days. Thereafter, the cell number was measured using a cell counting reagent (CellTiter-Glo (registered trademark) Luminescent Cell Viability Assay (Promega)). The cell proliferation inhibition rate was calculated as the measured value in the DMSO group set as 0% inhibition and the measured value in the well only with the medium on which the cells have not been seeded set as 100% inhibition.
Background: ATP-based viability assays read luminescence as a measure of living cells.

Test [2] has as its system human acute megakaryocytic leukemia cell line CMK cells. Kind of test: Proliferation inhibition, CMK cells (CellTiter-Glo). The following applies: 96 h, 4 days culture. As to the method: CMK is a cell line originated from human acute megakaryocytic leukemia and the activation of JAK 3 has been confirmed (Cancer Cell. 2006; 10:65-75). The human acute megakaryocytic leukemia cell line CMK cells (DSMZ, ACC392) cultured in RPMI1640 medium (Sigma) containing 20% bovine serum and 2 mM of glutamine were inoculated into 96 well plates. On the same day, DMSO solutions of the test compound B at final concentrations from 1 nM to 10 μM or only DMSO (DMSO group) were added thereto to culture the cells at 37° C. in 5% CO2 for 4 days. Thereafter, the cell number was measured using a cell counting reagent (CellTiter-Glo (registered trademark) Luminescent Cell Viability Assay (Promega)). The cell proliferation inhibition rate was calculated as the measured value in the DMSO group set as 0% inhibition and the measured value in the well only with the medium on which the cells have not been seeded set as 100% inhibition.

Test [3] deals with human anaplastic large cell lymphoma cell line KARPAS-299 cells. Briefly: Proliferation inhibition, KARPAS-299 cells (CellTiter-Glo). Particulars: KARPAS-299, 72 h, 3 days culture. As to the method: KARPAS-299 is a cell line originated from human anaplastic large cell lymphoma and the activation of JAK 3 has been confirmed (Oncogene. 2002; 21:1038-1047). The human anaplastic large cell lymphoma cell line KARPAS-299 cells (DSMZ, ACC31) cultured in RPMI1640 medium (Sigma) containing a 10% bovine serum were seeded into 96 well plates. On the same day, DMSO solution of the test compound B at a final concentrations from 1 nM to 10 μM or only DMSO (DMSO group) were added thereto to culture the cells at 37° C. in 5% CO2 for 3 days. Thereafter, the cell number was measured using a cell counting reagent (CellTiter-Glo (registered trademark) Luminescent Cell Viability Assay (Promega)). The cell proliferation inhibition rate was calculated as the measured value in the DMSO group set as 0% inhibition and the measured value in the well only with the medium on which the cells have not been seeded set as 100% inhibition.

Test [4] relates to human histiocytic lymphoma cell line U-937 cells. Kind of test: Proliferation inhibition, U-937 cells (CellTiter-Glo). Particulars: U-937, 72 h, 3 days culture. As to the method:
U-937 is a cell line originated from human histiocytic lymphoma and the BTK expression has been confirmed (J. Immunol. 1994; 152(2):557-565). The human histiocytic lymphoma cell line U-937 cells (Sumitomo Dainippon Pharma Co., Ltd.) cultured in RPMI1640 medium (Sigma) containing 10% bovine serum were seeded into 96 well plates. On the same day, DMSO solutions of the test compound B at a final concentrations from 1 nM to 10 μM or only DMSO (DMSO group) were added thereto to culture the cells at 37° C. in 5% CO2 for 3 days. Thereafter, the cell number was measured using a cell counting reagent (CellTiter-Glo (registered trademark) Luminescent Cell Viability Assay (Promega)). The cell proliferation inhibition rate was calculated as the measured value in the DMSO group set as 0% inhibition and the measured value in the well only with the medium on which the cells have not been seeded set as 100% inhibition.

In test [5] the test system is human acute T cell lymphoma cell line Jurkat 6.1E cells. Kind of test: Proliferation inhibition, Jurkat 6.1E cells (CellTiter-Glo). The following applies: 96 h, 4 days culture. As to the method: Jurkat 6.1E is a cell line originated from human acute T cell lymphoma and the ITK expression has been confirmed (Mol. Pharmacol. 2012; 82:938-947). The human acute T cell lymphoma cell line Jurkat 6.1E cells (European Collection of Cell Cultures, 88042803) cultured in RPMI1640 medium (Sigma) containing 10% bovine serum were seeded into 96 well plates. On the same day, DMSO solutions of the test compound B at a final concentrations from 1 nM to 10 μM or only DMSO (DMSO group) were added thereto to culture the cells at 37° C. in 5% CO2 for 4 days. Thereafter, the cell number was measured using a cell counting reagent (CellTiter-Glo (registered trademark) Luminescent Cell Viability Assay (Promega)). The cell proliferation inhibition rate was calculated as the measured value in the DMSO group set as 0% inhibition and the measured value in the well only with the medium on which the cells have not been inoculated set 100% inhibition.

The test system of test [6] is human acute myeloid leukemia cell line MV4-11 cells. Briefly: Proliferation inhibition, MV4-11 cells (CellTiter-Glo). The following applies: MV4-11, 72 h, 3 days culture. As to the method:
as §1, with “MV4-11” for “KG-1”, “(Mol. Cell Proteomics. 2009; 8(7):1751-1764).” for “(J. Immunol. 1994; 152(2):557-565).”, “CRL-9591)” for “CCL-246)”, “an Iscove's Modified Dulbecco's Medium” for “RPMI1640 medium”, “contain […]” for “containing”, “solution” for “solutions”

As for `C=CC(=O)N1CC[C@@H](Oc2nc(Nc3ccc(N4CCC(N5CCN(C)CC5)CC4)cc3)c(C(N)=O)nc2CC)C1` [test compound B, 5-{[(3R)-1-acryloylpyrrolidin-3-yl]oxy}-6-ethyl-3-({4-[4-(4-methylpiperazin-1-yl)piperidin-1-yl]phenyl}amino)pyrazine-2-carboxamide monomethanesulfonate], the pIC50 (as a rule, the negative decadic logarithm of the IC50, by convention in mol/L) is 7.42 in test [1]; 6.96 in test [2]; 6.60 in test [3]; 7.20 in test [4]; 6.03 in test [5]; 8.00 in test [6].
